Reference: US20160136286A1, “DRUG DELIVERY COMPOSITION” (The Queen's University of Belfast, priority 2008, published 2016)

Tests used:
[1] = solution in acetonitrile exposed to alternating periods of light and dark (365 nm), progress of drug liberation monitored; format: physicochemical; conditions: six alternating periods (FIG. 2)
Description: A solution of 2 in acetonitrile was then exposed to alternating periods of light and dark using the same conditions for light conditions as previously. […] The dose of liberated drug thus correlates with the duration of exposure to light. In this example, six periods of dosing and nondosing are alternated; this can be extended to any discrete dose required, in principle to the level of control provided from the light source, which includes molecule-scale control from low bursts of light deliverable from a laser source.

[2] = irradiation of a solution of the conjugate with 365 nm UV-A radiation, followed by UV-visible spectra; format: physicochemical; conditions: solution irradiated with 365 nm UV-A; judged from isosbestic points at 231 and 262 nm (FIG. 1)
Description: The behaviour of 2-4 is characterised by irradiating a solution using 365 nm UV-A radiation. As the photochemical reaction proceeds, the UV-visible spectrum of the reaction mixture changes (FIG. 1), reflecting the formation of 1 and drug and the consumption of conjugate. […] The identity of reaction products was verified by chromatographic separation, followed by spectroscopic analysis to be solely the corresponding drug and 1. The reaction proceeded in an analogous fashion to related nondrug examples 12 and all three conjugates 2-4 behaved similarly.

SMILES	drug liberation reaction under light conditions ([1]; 365 nm light periods)	liberation of drug in dark conditions ([1]; dark periods)	side products of the photochemical reaction [2]
COc1cc(OC)cc(C(OC(=O)c2ccccc2OC(C)=O)C(=O)c2ccccc2)c1 (stereo not drawn) [Compound 2]	proceeds	stopped completely	
COc1cc(OC)cc(C(OC(=O)C(C)c2ccc(CC(C)C)cc2)C(=O)c2ccccc2)c1 (stereo not drawn) [Compound 3]			no side products
